Data taken from PubChem BioAssay AID1963844 (Molecular Pharmacology Branch, DTP, NCI, 2024).

System: 422866-222-R5-J1-PDC complex spheroid viability
Assay: Anticancer human tumor 422866-222-R5-J1-PDC patient-derived pancreatic adenocarcinoma cell line growth inhibition [POLQ]
Conditions: for IC50: curve of first compound; for viability, T/C: stronger effect = lower value
In short: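 Three-cell-type spheroids modelling solid tumor plus stroma served as the readout system; POL inhibitors were tested individually and in combination, concentration ranges set by clinical Cmax where known.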

[1] = second compound 0.0316 µM, first compound 0.0316 µM
[2] = second compound 0.0316 µM, first compound 0.1 µM
[3] = second compound 0.0316 µM, first compound 0.316 µM
[4] = second compound 0.0316 µM, first compound 1 µM
[5] = second compound 0.1 µM, first compound 0.0316 µM
[6] = second compound 0.1 µM, first compound 0.1 µM
[7] = second compound 0.1 µM, first compound 0.316 µM
[8] = second compound 0.1 µM, first compound 1 µM
[9] = second compound 0.316 µM, first compound 0.0316 µM
[10] = second compound 0.316 µM, first compound 0.1 µM
[11] = second compound 0.316 µM, first compound 0.316 µM
[12] = second compound 0.316 µM, first compound 1 µM
[13] = second compound 1 µM, first compound 0.0316 µM
[14] = second compound 1 µM, first compound 0.1 µM
[15] = second compound 1 µM, first compound 0.316 µM
[16] = second compound 1 µM, first compound 1 µM
[17] = second compound 3.16 µM, first compound 0.0316 µM
[18] = second compound 3.16 µM, first compound 0.1 µM
[19] = second compound 3.16 µM, first compound 0.316 µM
[20] = second compound 3.16 µM, first compound 1 µM
[21] = second compound 10 µM, first compound 0.0316 µM
[22] = second compound 10 µM, first compound 0.1 µM
[23] = second compound 10 µM, first compound 0.316 µM
[24] = second compound 10 µM, first compound 1 µM
[25] = second compound 0.0316 µM, first compound 0.00316 µM
[26] = second compound 0.0316 µM, first compound 0.01 µM
[27] = second compound 0.1 µM, first compound 0.00316 µM
[28] = second compound 0.1 µM, first compound 0.01 µM
[29] = second compound 0.316 µM, first compound 0.00316 µM
[30] = second compound 0.316 µM, first compound 0.01 µM
[31] = second compound 1 µM, first compound 0.00316 µM
[32] = second compound 1 µM, first compound 0.01 µM
[33] = second compound 3.16 µM, first compound 0.00316 µM
[34] = second compound 3.16 µM, first compound 0.01 µM
[35] = second compound 10 µM, first compound 0.00316 µM
[36] = second compound 10 µM, first compound 0.01 µM
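Further: spheroids exposed to compounds for one week before readout.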
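Wherever viability, T/C is given: percent of DMSO vehicle wells luminescence so 100% = untreated viability.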

`CCCS(=O)(=O)Nc1ccc(F)c(C(=O)c2c[nH]c3ncc(-c4ccc(Cl)cc4)cc23)c1F` + Nc1ccc(C#CCN(C(=O)Cc2ncc(C(F)(F)F)cc2C(F)(F)F)c2ccc(F)cc2)nn1 showed an IC50 (second compound 0.0316 µM) of over 10000 nM, an IC50 (second compound 0.1 µM) of over 10000 nM and an IC50 (second compound 0.316 µM) of over 10000 nM. It also gave an IC50 (second compound 1 µM) of over 10000 nM, an IC50 (second compound 3.16 µM) of over 10000 nM and an IC50 (second compound 10 µM) of over 10000 nM. The viability, T/C [1] was 101%, the viability, T/C [2] was 103% and the viability, T/C [3] was 107%. It also gave a viability, T/C [4] of 181%, a viability, T/C (second compound 0.0316 µM, first compound 3.16 µM) of 197% and a viability, T/C (second compound 0.0316 µM, first compound 10 µM) of 118%. The viability, T/C [5] was 115%, the viability, T/C [6] was 107% and the viability, T/C [7] was 115%. For the same compound, the viability, T/C [8] was 182%, the viability, T/C (second compound 0.1 µM, first compound 3.16 µM) was 173% and the viability, T/C (second compound 0.1 µM, first compound 10 µM) was 118%. The viability, T/C [9] was 105%, the viability, T/C [10] was 96.4% and the viability, T/C [11] was 113%. It also gave a viability, T/C [12] of 162%, a viability, T/C (second compound 0.316 µM, first compound 3.16 µM) of 164% and a viability, T/C (second compound 0.316 µM, first compound 10 µM) of 129%. It also gave a viability, T/C [13] of 103%, a viability, T/C [14] of 112% and a viability, T/C [15] of 125%. For the same compound, the viability, T/C [16] was 133%, the viability, T/C (second compound 1 µM, first compound 3.16 µM) was 193% and the viability, T/C (second compound 1 µM, first compound 10 µM) was 113%. It also gave a viability, T/C [17] of 107%, a viability, T/C [18] of 124% and a viability, T/C [19] of 138%. It also gave a viability, T/C [20] of 127%, a viability, T/C (second compound 3.16 µM, first compound 3.16 µM) of 153% and a viability, T/C (second compound 3.16 µM, first compound 10 µM) of 114%. It also gave a viability, T/C [21] of 125%, a viability, T/C [22] of 138% and a viability, T/C [23] of 166%. For the same compound, the viability, T/C [24] was 154%, the viability, T/C (second compound 10 µM, first compound 3.16 µM) was 166% and the viability, T/C (second compound 10 µM, first compound 10 µM) was 96.7%.
In the case of `CC[C@@]1(O)C(=O)OCc2c1cc1n(c2=O)Cc2cc3c(CN(C)C)c(O)ccc3nc2-1` + Nc1ccc(C#CCN(C(=O)Cc2ncc(C(F)(F)F)cc2C(F)(F)F)c2ccc(F)cc2)nn1, the IC50 (second compound 0.0316 µM) is reported as 26.3 nM, the IC50 (second compound 0.1 µM) is reported as 18.4 nM and the IC50 (second compound 0.316 µM) is reported as 19.5 nM. For the same compound, the IC50 (second compound 1 µM) was 10.7 nM, the IC50 (second compound 3.16 µM) was 19.7 nM and the IC50 (second compound 10 µM) was 26.6 nM. The viability, T/C (second compound 0.0316 µM, first compound 0.000316 µM) was 102%, the viability, T/C (second compound 0.0316 µM, first compound 0.001 µM) was 109% and the viability, T/C [25] was 93.3%. It also gave a viability, T/C [26] of 76%, a viability, T/C [1] of 44% and a viability, T/C [2] of 34.6%. For the same compound, the viability, T/C (second compound 0.1 µM, first compound 0.000316 µM) was 99.1%, the viability, T/C (second compound 0.1 µM, first compound 0.001 µM) was 87.2% and the viability, T/C [27] was 89.6%. The viability, T/C [28] was 63.9%, the viability, T/C [5] was 37.4% and the viability, T/C [6] was 33.6%. For the same compound, the viability, T/C (second compound 0.316 µM, first compound 0.000316 µM) was 85.6%, the viability, T/C (second compound 0.316 µM, first compound 0.001 µM) was 105% and the viability, T/C [29] was 87%. For the same compound, the viability, T/C [30] was 63.8%, the viability, T/C [9] was 40.8% and the viability, T/C [10] was 34.8%. The viability, T/C (second compound 1 µM, first compound 0.000316 µM) was 105%, the viability, T/C (second compound 1 µM, first compound 0.001 µM) was 108% and the viability, T/C [31] was 80.5%. The viability, T/C [32] was 53.6%, the viability, T/C [13] was 33.3% and the viability, T/C [14] was 35.7%. It also gave a viability, T/C (second compound 3.16 µM, first compound 0.000316 µM) of 89.2%, a viability, T/C (second compound 3.16 µM, first compound 0.001 µM) of 100% and a viability, T/C [33] of 92.9%. It also gave a viability, T/C [34] of 68.1%, a viability, T/C [17] of 36.9% and a viability, T/C [18] of 37%. It also gave a viability, T/C (second compound 10 µM, first compound 0.000316 µM) of 114%, a viability, T/C (second compound 10 µM, first compound 0.001 µM) of 99.4% and a viability, T/C [35] of 100%. It also gave a viability, T/C [36] of 75.8%, a viability, T/C [21] of 44.5% and a viability, T/C [22] of 31.5%.
With `CCc1c2c(nc3ccc(O)cc13)-c1cc3c(c(=O)n1C2)COC(=O)[C@]3(O)CC` + Nc1ccc(C#CCN(C(=O)Cc2ncc(C(F)(F)F)cc2C(F)(F)F)c2ccc(F)cc2)nn1 the IC50 (second compound 0.0316 µM) was under 3.16 nM, the IC50 (second compound 0.1 µM) was under 3.16 nM and the IC50 (second compound 0.316 µM) was under 3.16 nM. For the same compound, the IC50 (second compound 1 µM) was under 3.16 nM, the IC50 (second compound 3.16 µM) was under 3.16 nM and the IC50 (second compound 10 µM) was under 3.16 nM. For the same compound, the viability, T/C [25] was 40%, the viability, T/C [26] was 32.4% and the viability, T/C [1] was 33.4%. It also gave a viability, T/C [2] of 33%, a viability, T/C [3] of 35% and a viability, T/C [4] of 16.2%. The viability, T/C [27] was 39.4%, the viability, T/C [28] was 37.8% and the viability, T/C [5] was 35%. For the same compound, the viability, T/C [6] was 32.4%, the viability, T/C [7] was 32.8% and the viability, T/C [8] was 20.6%. The viability, T/C [29] was 35.8%, the viability, T/C [30] was 38% and the viability, T/C [9] was 34.8%. It also gave a viability, T/C [10] of 33.3%, a viability, T/C [11] of 33% and a viability, T/C [12] of 16.9%. It also gave a viability, T/C [31] of 38.4%, a viability, T/C [32] of 32.3% and a viability, T/C [13] of 32.7%. It also gave a viability, T/C [14] of 31%, a viability, T/C [15] of 30.5% and a viability, T/C [16] of 21.7%. The viability, T/C [33] was 36.2%, the viability, T/C [34] was 31.6% and the viability, T/C [17] was 29.4%. It also gave a viability, T/C [18] of 32.7%, a viability, T/C [19] of 39.1% and a viability, T/C [20] of 23.1%. The viability, T/C [35] was 38.6%, the viability, T/C [36] was 35% and the viability, T/C [21] was 36.9%. It also gave a viability, T/C [22] of 28.7%, a viability, T/C [23] of 31.2% and a viability, T/C [24] of 18.6%.
